{"source": "patent US11656224B2", "about": "“Multivalent glycan microarray platform” (Z Biotech, LLC, priority 2016, dated 2023)", "key": {"[1]": {"target": "T1, peanut agglutinin (PNA) lectin (Arachis hypogaea, UniProt P02872)", "T1 sequence (P02872 24-273)": "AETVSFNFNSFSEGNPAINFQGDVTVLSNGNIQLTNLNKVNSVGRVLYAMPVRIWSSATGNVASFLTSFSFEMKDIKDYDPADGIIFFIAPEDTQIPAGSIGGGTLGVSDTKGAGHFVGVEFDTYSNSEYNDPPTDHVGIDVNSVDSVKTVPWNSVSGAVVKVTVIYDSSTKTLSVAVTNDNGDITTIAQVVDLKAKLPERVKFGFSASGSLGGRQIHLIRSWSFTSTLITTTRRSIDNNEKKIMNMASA", "test": "PNA lectin binding to glycan array on polystyrene polymer slides", "details": "PNA 10 μg/ml, PAMAM G3 NHS, Cy5 labeled streptavidin", "description": "(§1) (PAMAM) dendrimer generation 3 functionalized with N-hydroxysuccinimide (NHS) groups (Example 5). The glycan array was fabricated same as described in Example 7. Biotinylated lectins (e.g., SBA, FIG. 7; PNA, FIG. 8; and ConA, FIG. 9) were used for examine the binding on the glycan array by detection with a Cy5 labeled streptavidin."}, "[2]": {"target": "T2, Soybean agglutinins (SBA) lectin (Glycine max, UniProt P05046)", "T2 sequence (P05046 33-285)": "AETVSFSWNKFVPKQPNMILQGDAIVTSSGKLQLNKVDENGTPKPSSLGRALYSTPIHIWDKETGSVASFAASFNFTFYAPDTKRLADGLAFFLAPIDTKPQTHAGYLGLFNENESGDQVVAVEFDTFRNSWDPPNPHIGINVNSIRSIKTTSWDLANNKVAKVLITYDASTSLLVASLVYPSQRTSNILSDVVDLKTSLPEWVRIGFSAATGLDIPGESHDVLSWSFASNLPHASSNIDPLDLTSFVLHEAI", "test": "SBA lectin binding to O-mucin glycan microarray (NHS PAMAM G2 glass slide)", "details": "SBA 1 μg/ml; O-mucin glycan microarray on glass; Cy3 labeled streptavidin", "method": "For this purpose, a library containing 12 glycan probes representing 0-GalNAc glycan structures in mucin (Table 2) was immobilized onto a glass slide coated with PAMAM dendrimer (generation 2) terminated with NHS functional groups (Example 1). Each glycan was dissolved in a Print Buffer containing 150 mM sodium phosphate, (pH 8.5) with 100 μM concentration and printed onto the slides using ˜1 nL probe. The printing process was performed in 60% relative humidity. After printing the glycan immobilization can be enhanced by incubation at room temperature for 12 hours in 60% relative humidity.\nThe carbohydrate-protein interaction can be investigated by interrogating the microarray with lectins or glycan-binding proteins. In detail, first the arrayed slides were briefly rinsed in MilliQ water and then affixed into an assay chamber. The arrays were treated with a blocking buffer, such as 25 mM ethanolamine in 100 mM boric acid, 0.01% Tween 20 (pH 8.5). A biotinylated lectin (e.g., Helix pomatia Agglutinin (HPA)) or a glycan-binding protein dissolved in an Assay Buffer was subjected to the array for incubation. The Assay Buffer could be 20 mM Tris-HCl, 150 mM NaCl, 0.05% Tween 20, 1 mM CaCl2), 1 mM MgCl2, 1% BSA (pH 7.6). The protein-carbohydrate binding was detected by applying a Cy3 labeled streptavidin. The binding intensities—relative fluorescence units (RFU)—were quantified by using a fluorescence-based microarray scanner (FIG. 6)."}, "[3]": {"target": "T2, Soybean agglutinins (SBA) lectin", "test": "SBA lectin binding to glycan array on polystyrene polymer slides", "details": "SBA 10 μg/ml, PAMAM G3 NHS, Cy5 labeled streptavidin", "description": "as §1"}, "[4]": {"tested_on": "HIV broadly neutralizing antibody 2G12", "test": "2G12 antibody binding to high-mannose N-glycans on hydrazide substrate with or without aniline", "details": "aniline-coated substrate", "description": "2G12 is pre-complexed with Cy3 labeled anti-Human IgG (1:4 ratio). […] 2G12 is pre-complexed with Cy3 labeled anti-Human IgG (1:4 ratio). […] CD15 antibody is detected with Alexa Fluor 555-labeled anti-mouse IgM secondary antibody. […] The aniline can serve as a catalyst to increase aldehyde-hydrazide coupling efficiency, thus enhance the immobilization capability for glycans containing free reducing-end. The use of aniline as a nucleophilic catalyst accelerates bond formation through a Schiff base intermediate (mechanism in FIG. 4D)."}}}
{"compound": "CC(=O)NC1C(OCC(N)C(=O)O)OC(CO)C(O)C1OC1OC(CO)C(O)C(O)C1O", "note": "(stereo not drawn) [T-Ser, Galβ1-3GalNAcα1-Ser]", "values": [{"measurement": "binding to PNA lectin", "setting": "[1]", "result": "specific binding"}]}
{"compound": "CC(=O)NC1C(OC(C)C(N)C(=O)O)OC(CO)C(O)C1OC1OC(CO)C(O)C(O)C1O", "note": "(stereo not drawn) [T-Thr, Galβ1-3GalNAcα1-Thr]", "values": [{"measurement": "binding to PNA lectin", "setting": "[1]", "result": "specific binding"}]}
{"compound": "CC(=O)N[C@H]1[C@@H](OC[C@H](N)C(=O)O)O[C@H](CO)[C@H](O)[C@@H]1O", "note": "[Tn-Ser, α-GalNAc-Ser]", "values": [{"measurement": "binding to SBA lectin", "setting": "[2]", "result": "specific binding"}]}
{"compound": "CC(=O)N[C@H]1[C@@H](O[C@H](C)[C@H](N)C(=O)O)O[C@H](CO)[C@H](O)[C@@H]1O", "note": "[Tn-Thr, α-GalNAc-Thr]", "values": [{"measurement": "binding to SBA lectin", "setting": "[3]", "result": "specific binding"}, {"measurement": "binding to SBA lectin", "setting": "[2]", "result": "specific binding"}]}
{"compound": "H2N-APGST*APP-NH2 (*α-GalNAc)", "values": [{"measurement": "binding to SBA lectin", "setting": "[3]", "result": "specific binding"}, {"measurement": "binding to SBA lectin", "setting": "[2]", "result": "specific binding"}]}
{"compound": "H2N-TSAPDT*RPAP-NH2 (*α-GalNAc)", "values": [{"measurement": "binding to SBA lectin", "setting": "[2]", "result": "specific binding"}]}
{"compound": "[Manα1-2] [Manα1-2] Manα1-6(Manα1-3)Manα1-6(Manα1-2Manα1-3)Manβ1-4GlcNAcβ1-4GlcNAc-(3 isomers) [Glycan 90]", "values": [{"measurement": "binding to 2G12 antibody", "setting": "[4]", "result": "specific binding"}]}
